From patent US9920061B2, “Imidazo[1,5-A]pyrimidinyl carboxamide compounds and their use in the treatment of medical disorders” (Lysosomal Therapeutics Inc., priority 2016, dated 2018)
Converted amounts (≈) assume the structure as drawn. Like-named read-outs stand apart in the source and are kept apart here.

Tests used:
[1] = target: T1, glucocerebrosidase (Gcase) (Homo sapiens, UniProt P04062); assay: Glucocerebrosidase (Gcase) activation assay, 4-methylumbelliferyl-beta-D-glucopyranoside substrate, with saposin C; type: biochemical
T1 sequence (P04062 40-536): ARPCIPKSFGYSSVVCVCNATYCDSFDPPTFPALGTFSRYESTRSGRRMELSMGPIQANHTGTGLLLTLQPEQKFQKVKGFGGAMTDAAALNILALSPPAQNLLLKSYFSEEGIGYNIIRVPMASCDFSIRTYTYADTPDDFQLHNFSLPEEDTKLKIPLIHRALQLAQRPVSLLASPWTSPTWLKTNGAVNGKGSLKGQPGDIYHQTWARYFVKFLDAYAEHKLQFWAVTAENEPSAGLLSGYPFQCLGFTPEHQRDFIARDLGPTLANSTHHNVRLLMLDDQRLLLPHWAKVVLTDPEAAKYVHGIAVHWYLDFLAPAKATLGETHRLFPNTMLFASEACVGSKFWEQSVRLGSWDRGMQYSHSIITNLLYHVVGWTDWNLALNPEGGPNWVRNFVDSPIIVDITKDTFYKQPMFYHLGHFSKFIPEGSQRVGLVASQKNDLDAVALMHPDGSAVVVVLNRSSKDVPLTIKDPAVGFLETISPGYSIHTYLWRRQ
Procedure, shortened: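 Micellar buffer (176 mM K2HPO4/50 mM citric acid, pH 4.7; 0.32 mM triton, 0.37 mol % PS) holding 10 nM GCase and 100 nM saposin C, pre-incubated with compound 30 min at room temperature. Substrate final 2 mM before mixing; 15 min reaction, glycine pH 12.5 stop, fluorescence 365/440 nm. Screened at 1.0 and 0.1 μM; 8-point, 3-fold dose response.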

[2] = Compound solubility in water; type: physicochemical
[3] = 0.1 μM test compound, read-out: Percent Gcase Activation 0.1 μM Test Compound
[4] = 1 μM test compound, read-out: Percent Gcase Activation 1 μM Test Compound
[5] = test compound at 0.1 μM, read-out: Percent Gcase Activation, 0.1 μM Test Compound
[6] = test compound at 1.0 μM, read-out: Percent Gcase Activation, 1 μM Test Compound

Row | Structure (SMILES) | activation at 0.1 µM [1, 3] | activation at 1 µM [1, 4] | solubility [2] | activation at 0.1 µM [1, 5] | activation at 1 µM [1, 6] | solubility ([2]; in water)
1 | Cc1cc(OC2CC2)nc2c(C(=O)NC(C3CC3)C3CC3)ncn12 [III-179] | < 10% | 30 to 60% | 14.3 µg/mL (≈ 43.8 µM) | – | – | –
2 | Cc1cc(OC2CCC2)nc2c(C(=O)NC(C3CC3)C3CC3)ncn12 [III-180] | 10 to 20% | > 60% | 23.3 µg/mL (≈ 68.4 µM) | – | – | –
3 | COc1cccc(-c2cc(C)n3cnc(C(=O)NC(C4CC4)C(F)(F)F)c3n2)c1 (stereo not drawn) [III-182] | > 20% | > 60% | 1.5 µg/mL (≈ 3.71 µM) | – | – | –
4 | Cc1cc(-c2cccc(F)c2)nc2c(C(=O)NC(C)(C)C(F)(F)F)ncn12 [III-183] | > 20% | > 60% | 0.6 µg/mL (≈ 1.58 µM) | – | – | –
5 | COc1cccc(-c2cc(C)n3cnc(C(=O)NC(C)(C)C(F)(F)F)c3n2)c1 [III-184] | > 20% | > 60% | 4.3 µg/mL (≈ 11 µM) | – | – | –
6 | Cc1cc(-c2cccc(Cl)c2)nc2c(C(=O)NC(C)(C)C(F)(F)F)ncn12 [III-185] | > 20% | > 60% | 3.7 µg/mL (≈ 9.32 µM) | – | – | –
7 | C#CC(C)(C)NC(=O)c1ncn2c(C)cc(-c3cccc(OC4CC4)c3)nc12 [III-186] | > 20% | > 60% | 1.5 µg/mL (≈ 4.01 µM) | – | – | –
8 | C#CC(C)(C)NC(=O)c1ncn2c(C)cc(-c3cc(F)cc(OC)c3)nc12 [III-187] | > 20% | > 60% | 0.9 µg/mL (≈ 2.46 µM) | – | – | –
9 | C#CC(C)(C)NC(=O)c1ncn2c(C)cc(-c3cc(F)cc(F)c3)nc12 [III-188] | 10 to 20% | > 60% | 0.3 µg/mL (≈ 0.847 µM) | – | – | –
10 | COc1cccc(-c2cc(C)n3cnc(C(=O)N[C@H](C)C4CC4)c3n2)c1 [IV-1] | – | – | – | 10 to 20% | > 60% | 8.3 µg/mL (≈ 23.7 µM)
11 | CCCCO[C@H]1C[C@H]2CC[C@@H](C1)[C@H]2NC(=O)c1ncn2c(COC)cc(C)nc12 [IV-2] | – | – | – | > 20% | > 60% | 27.5 µg/mL (≈ 68.7 µM)
12 | CCCCO[C@H]1C[C@H]2CC[C@@H](C1)[C@@H]2NC(=O)c1ncn2c(COC)cc(C)nc12 [IV-3] | – | – | – | < 10% | 30 to 60% | 15.3 µg/mL (≈ 38.2 µM)
13 | CCCCO[C@H]1C[C@H]2CC[C@@H](C1)[C@H]2NC(=O)c1ncn2c(C)cc(COC)nc12 [IV-4] | – | – | – | > 20% | > 60% | 16.4 µg/mL (≈ 40.9 µM)
14 | CCCCO[C@H]1C[C@H]2CC[C@@H](C1)[C@@H]2NC(=O)c1ncn2c(C)cc(COC)nc12 [IV-5] | – | – | – | < 10% | > 60% | 24.3 µg/mL (≈ 60.7 µM)
15 | Cc1cc(NC(=O)c2ccccc2)nc2c(C(=O)NC(C3CC3)C(F)(F)F)ncn12 (stereo not drawn) [IV-6] | – | – | – | < 10% | 30 to 60% | 15.1 µg/mL (≈ 36.2 µM)
16 | Cc1cc(-c2ccns2)nc2c(C(=O)N[C@H](C3CC3)C(F)(F)F)ncn12 [IV-7] | – | – | – | 10 to 20% | > 60% | 9.9 µg/mL (≈ 26 µM)
17 | Cc1cc(-c2ccns2)nc2c(C(=O)N[C@@H](C3CC3)C(F)(F)F)ncn12 [IV-8] | – | – | – | 10 to 20% | > 60% | 19.7 µg/mL (≈ 51.7 µM)
18 | Cc1cc(-c2ccon2)nc2c(C(=O)NC(C3CC3)C(F)(F)F)ncn12 (stereo not drawn) [IV-9] | – | – | – | < 10% | 30 to 60% | 3.9 µg/mL (≈ 10.7 µM)
19 | Cc1cc(C)n2cnc(C(=O)N[C@H]3[C@@H]4CC[C@H]3C[C@@H](OC(C)(C)C)C4)c2n1 [IV-10] | – | – | – | > 20% | > 60% | 1 µg/mL (≈ 2.7 µM)
20 | Cc1cc(C)n2cnc(C(=O)N[C@@H]3[C@@H]4CC[C@H]3C[C@@H](OC(C)(C)C)C4)c2n1 [IV-11] | – | – | – | > 20% | > 60% | 4.9 µg/mL (≈ 13.2 µM)
21 | COc1cccc(-c2cc(C)n3cnc(C(=O)N[C@H](C4CC4)C(F)(F)F)c3n2)n1 [IV-13] | – | – | – | > 20% | > 60% | 1.9 µg/mL (≈ 4.69 µM)
22 | COc1cccc(-c2cc(C)n3cnc(C(=O)N[C@@H](C4CC4)C(F)(F)F)c3n2)n1 [IV-14] | – | – | – | > 20% | > 60% | 3.2 µg/mL (≈ 7.89 µM)
23 | Cc1cc(-c2cccc(OC3CC3)n2)nc2c(C(=O)NC(C3CC3)C(F)(F)F)ncn12 (stereo not drawn) [IV-15] | – | – | – | 10 to 20% | > 60% | 2.1 µg/mL (≈ 4.87 µM)
24 | CCc1cc(N2CCN(C(C)C)C2=O)nc2c(C(=O)NC(C3CC3)C(F)(F)F)ncn12 (stereo not drawn) [IV-16] | – | – | – | 10 to 20% | > 60% | 24.6 µg/mL (≈ 56.1 µM)
25 | Cc1cc(-c2cccc3ncoc23)nc2c(C(=O)N[C@H](C3CC3)C(F)(F)F)ncn12 [IV-17] | – | – | – | > 20% | > 60% | 1.1 µg/mL (≈ 2.65 µM)

Row | Structure (SMILES) | activation at 0.1 µM [1, 3] | activation at 1 µM [1, 4] | solubility [2] | activation at 0.1 µM [1, 5] | activation at 1 µM [1, 6] | solubility ([2]; in water)
26 | Cc1cc(-c2cccc3ncoc23)nc2c(C(=O)N[C@@H](C3CC3)C(F)(F)F)ncn12 [IV-18] | – | – | – | > 20% | > 60% | 0.4 µg/mL (≈ 0.963 µM)
27 | Cc1cc(-c2cccc(F)c2)nc2c(C(=O)N[C@H](C3CC3)C(F)(F)F)ncn12 [IV-19] | – | – | – | > 20% | > 60% | 0.7 µg/mL (≈ 1.78 µM)
28 | Cc1cc(-c2cccc(F)c2)nc2c(C(=O)N[C@@H](C3CC3)C(F)(F)F)ncn12 [IV-20] | – | – | – | > 20% | > 60% | 0.7 µg/mL (≈ 1.78 µM)
29 | COc1cccc(-c2cc(C)n3cnc(C(=O)N[C@H](C)C(F)(F)F)c3n2)c1 [IV-21] | – | – | – | 10 to 20% | > 60% | 2.7 µg/mL (≈ 7.14 µM)
30 | COc1cccc(-c2cc(C)n3cnc(C(=O)N[C@@H](C)C(F)(F)F)c3n2)c1 [IV-22] | – | – | – | > 20% | > 60% | 1.7 µg/mL (≈ 4.49 µM)
31 | C#CC(NC(=O)c1ncn2c(C)cc(-c3ccccc3C#N)nc12)C(F)(F)F (stereo not drawn) [IV-23] | – | – | – | 10 to 20% | > 60% | 0.6 µg/mL (≈ 1.57 µM)
32 | C#CC(C)(C)NC(=O)c1ncn2c(C)cc(-c3cccc4nccn34)nc12 [IV-24] | – | – | – | < 10% | < 30% | 2.5 µg/mL (≈ 6.98 µM)
33 | Cc1cc(-c2cccc3nccn23)nc2c(C(=O)NC(C3CC3)C(F)(F)F)ncn12 (stereo not drawn) [IV-25] | – | – | – | < 10% | < 30% | 3.3 µg/mL (≈ 7.96 µM)
34 | C#CC(C)(C)NC(=O)c1ncn2c(C)cc(-c3ccc4c(c3)OCO4)nc12 [IV-26] | – | – | – | 10 to 20% | > 60% | 0.5 µg/mL (≈ 1.38 µM)
35 | C#CC(C)(C)NC(=O)c1ncn2c(C)cc(-c3cccc4c3OCO4)nc12 [IV-27] | – | – | – | < 10% | < 30% | 1.1 µg/mL (≈ 3.04 µM)
36 | Cc1cc(-c2ccc3c(c2)OCO3)nc2c(C(=O)N[C@@H](C)C3CC3)ncn12 [IV-28] | – | – | – | > 20% | > 60% | 1.1 µg/mL (≈ 3.02 µM)
37 | Cc1cc(-c2ccc3c(c2)OCO3)nc2c(C(=O)N[C@H](C)C3CC3)ncn12 [IV-29] | – | – | – | > 20% | > 60% | 1.1 µg/mL (≈ 3.02 µM)
38 | Cc1cc(-c2cccc3c2OCO3)nc2c(C(=O)N[C@@H](C)C3CC3)ncn12 [IV-30] | – | – | – | > 20% | > 60% | 0.5 µg/mL (≈ 1.37 µM)
39 | Cc1cc(-c2cccc3c2OCO3)nc2c(C(=O)N[C@H](C)C3CC3)ncn12 [IV-31] | – | – | – | 10 to 20% | > 60% | 1.4 µg/mL (≈ 3.84 µM)
40 | Cc1cc(-c2cscc2C#N)nc2c(C(=O)NC(C3CC3)C(F)(F)F)ncn12 (stereo not drawn) [IV-32] | – | – | – | > 20% | > 60% | 0.6 µg/mL (≈ 1.48 µM)
41 | Cc1cc(-c2ccc(C#N)o2)nc2c(C(=O)NC(C3CC3)C(F)(F)F)ncn12 (stereo not drawn) [IV-33] | – | – | – | > 20% | > 60% | 0.7 µg/mL (≈ 1.8 µM)
42 | Cc1cc(-c2cccc(C#N)c2F)nc2c(C(=O)NC(C3CC3)C(F)(F)F)ncn12 (stereo not drawn) [IV-36] | – | – | – | > 20% | > 60% | 0.5 µg/mL (≈ 1.2 µM)
43 | Cc1cc(-c2sccc2C#N)nc2c(C(=O)NC(C3CC3)C(F)(F)F)ncn12 (stereo not drawn) [IV-37] | – | – | – | > 20% | > 60% | 2.4 µg/mL (≈ 5.92 µM)
44 | Cc1cc(-c2cccc(F)c2C#N)nc2c(C(=O)NC(C3CC3)C(F)(F)F)ncn12 (stereo not drawn) [IV-38] | – | – | – | > 20% | > 60% | 0.4 µg/mL (≈ 0.958 µM)
45 | Cc1cc(-c2cccc(C#N)n2)nc2c(C(=O)NC(C3CC3)C(F)(F)F)ncn12 (stereo not drawn) [IV-39] | – | – | – | < 10% | 30 to 60% | 0.3 µg/mL (≈ 0.749 µM)
46 | Cc1cc(-c2ccccc2CC#N)nc2c(C(=O)NC(C3CC3)C(F)(F)F)ncn12 (stereo not drawn) [IV-40] | – | – | – | < 10% | 30 to 60% | 15.4 µg/mL (≈ 37.3 µM)
47 | Cc1cc(-c2cccc3ncnn23)nc2c(C(=O)NC(C3CC3)C(F)(F)F)ncn12 (stereo not drawn) [IV-41] | – | – | – | < 10% | 30 to 60% | 3.5 µg/mL (≈ 8.43 µM)
48 | Cc1cc(-c2cccn3cnnc23)nc2c(C(=O)NC(C3CC3)C(F)(F)F)ncn12 (stereo not drawn) [IV-42] | – | – | – | < 10% | > 60% | 2.1 µg/mL (≈ 5.06 µM)
49 | Cc1cc(-c2ccc3nncn3c2)nc2c(C(=O)NC(C3CC3)C(F)(F)F)ncn12 (stereo not drawn) [IV-43] | – | – | – | < 10% | < 30% | 17.5 µg/mL (≈ 42.1 µM)
